Assay results as given in paper PMC7997166, “In Silico Plasma Protein Binding Studies of Selected Group of Drugs Using TLC and HPLC Retention Data” (Pharmaceuticals, 2021).

Key:
human serum albumin = human serum albumin (Homo sapiens, UniProt P02768); assay: HPLC on column with immobilized human serum albumin (CHIRALPAK HSA); assay type: binding; details: mobile phase acetate buffer pH 7.4:acetonitrile:methanol 85:10:5; flow 0.9 mL/min; 25 degrees Celsius; void time marker methanol t = 1.63
Experimental: HPLC analysis was performed on a Perkin Elmer Series 200 apparatus with a UV-VIS spectrometer for detection with an analytical wavelength of 210 nm. The mobile phase consisted of an acetate buffer with pH 7.4:acetonitrile:methanol, 85:10:5 (v/v/v). All solvents used—water, methanol and acetonitrile—were purchased from J.T. Baker (HPLC gradient class). The acetate buffer (10 mM) was prepared by dissolving 0.77 g of ammonium acetate in 1 L of distilled water. The pH was then adjusted with a concentrated ammonia solution.
API solutions in methanol (1 mg/mL, volume of injection: 10 μL) were injected into the HSA column using an automatic autosampler. The flow rate of the mobile phase was 0.9 mL/min. Since the column could not be thermostated, the room temperature was kept constant at 25 degrees Celsius by air conditioning. Chromatographic data (retention factor k and derivative: log k) were obtained for 129 APIs using the TotalChrom software connected to HPLC. Factor k, which is the ratio between the amount of analyte in the stationary phase to the amount in the mobile phase, was obtained from the equation k = (tR − tM)/tM where tR is retention time and tM is void time. The experiment was then repeated, and the collected retention factors (k) were means values from both series.

[1] = NP TLC on control silica gel plates without protein modifier (Rf); assay type: physicochemical; details: silica gel 60 F254 without BSA (control), mobile phase acetonitrile:acetate buffer pH 7.4:methanol 60:20:20, λ = 240 nm
Experimental: TLC was performed in normal and reversed phase (NP and RP) systems. Aluminum plates with silica gel (Merck, TLC Silica gel 60 F254) were used in the NP system and aluminum plates with silanized silica gel—RP (Merck, TLC Silica gel 60 RP-2 F254, silanized) were used in the RP system. The stationary phase surface modifying protein was bovine serum albumin. A 2-mg/mL solution of BSA (Sigma Aldrich, Bovine serum albumin lyophilised powder) in distilled water was applied on the surface using Desaga Sprayer SG 1 and air-dried.
Drug solutions in methanol (1 mg/mL) were applied on the plates with the Desaga HPTLC-Applicator AS 30, then the plates were developed in the mobile phase composed of acetonitrile, acetate buffer pH 7.4 and methanol, 60:20:20 (v/v/v). All solvents used—water, methanol and acetonitrile—were purchased from J.T. Baker (HPLC Gradient Grade). The acetate buffer (20mM) was prepared by dissolving 1.54 g of ammonium acetate in 1 L of distilled water. The pH was then adjusted with concentrated ammonia solution.
The mobility of the compounds was initially determined on NP and RP plates without the participation of the protein modifier. These were labeled as controls (C). The obtained retardation factor (Rf) values could be used to determine the composition of the mobile phase, as well as the specific effect of the protein modifier on the mobility of the APIs. […]

bovine serum albumin = bovine serum albumin (Bos taurus, UniProt P02769); assay: NP TLC on BSA-impregnated silica gel plates (retardation factor Rf); assay type: binding; details: silica gel 60 F254 impregnated with BSA, mobile phase acetonitrile:acetate buffer pH 7.4:methanol 60:20:20, λ = 240 nm
Sequence of bovine serum albumin (P02769 25-607): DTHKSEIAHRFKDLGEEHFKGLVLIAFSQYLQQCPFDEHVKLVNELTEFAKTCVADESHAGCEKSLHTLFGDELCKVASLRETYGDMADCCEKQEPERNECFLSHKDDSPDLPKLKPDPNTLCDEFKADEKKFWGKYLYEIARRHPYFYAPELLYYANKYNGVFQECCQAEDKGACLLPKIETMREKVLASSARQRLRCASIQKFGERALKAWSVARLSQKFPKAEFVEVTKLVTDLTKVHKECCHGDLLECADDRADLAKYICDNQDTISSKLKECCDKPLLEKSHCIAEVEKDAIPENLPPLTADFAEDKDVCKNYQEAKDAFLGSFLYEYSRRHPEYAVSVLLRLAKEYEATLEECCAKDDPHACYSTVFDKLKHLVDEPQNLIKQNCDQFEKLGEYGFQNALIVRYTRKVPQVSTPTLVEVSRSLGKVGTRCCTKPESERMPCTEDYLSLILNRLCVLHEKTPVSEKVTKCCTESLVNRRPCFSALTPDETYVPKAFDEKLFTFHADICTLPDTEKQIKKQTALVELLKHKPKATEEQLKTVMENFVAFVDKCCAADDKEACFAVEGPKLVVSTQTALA

Sequence of human serum albumin (P02768 25-609): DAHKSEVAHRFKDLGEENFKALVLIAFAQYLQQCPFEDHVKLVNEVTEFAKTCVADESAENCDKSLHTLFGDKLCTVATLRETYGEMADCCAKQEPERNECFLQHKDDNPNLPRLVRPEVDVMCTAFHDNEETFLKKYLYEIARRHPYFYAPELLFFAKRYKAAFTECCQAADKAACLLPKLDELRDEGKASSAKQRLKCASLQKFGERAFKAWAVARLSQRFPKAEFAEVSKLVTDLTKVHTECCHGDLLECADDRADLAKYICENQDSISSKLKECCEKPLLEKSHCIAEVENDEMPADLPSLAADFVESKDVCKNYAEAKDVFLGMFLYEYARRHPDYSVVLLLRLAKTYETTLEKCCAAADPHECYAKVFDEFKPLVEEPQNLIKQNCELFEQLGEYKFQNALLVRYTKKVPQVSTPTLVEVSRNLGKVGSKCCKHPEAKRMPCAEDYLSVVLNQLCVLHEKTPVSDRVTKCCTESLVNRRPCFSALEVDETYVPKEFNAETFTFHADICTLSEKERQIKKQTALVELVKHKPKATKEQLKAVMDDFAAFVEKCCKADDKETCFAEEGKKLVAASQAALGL

| retention time (t) on HPLC column with immobilized HSA (human serum albumin) | Rf, control NP plate [1] | Rf, BSA-impregnated NP plate (bovine serum albumin) | SMILES |
| --- | --- | --- | --- |
| 3.71 | – | – | CC(C)c1nc(N(C)S(C)(=O)=O)nc(-c2ccc(F)cc2)c1/C=C/[C@@H](O)C[C@@H](O)CC(=O)O [rosuvastatin] |
| – | 0.34 | 0.31 | CN(C)CCC=C1c2ccccc2COc2ccccc21 [doxepin] |
